These results are taken from patent publication US20220370416A1, “COMPOUNDS AND METHODS FOR TARGETED DEGRADATION OF KRAS” (Arvinas Operations, Inc., priority 2020, published 2022).

Assay [1] addresses T1, HiBit-KRAS^G12C (Homo sapiens, UniProt P01116, G12C). Put plainly: HiBit degradation assay in MiaPaCa-2 HiBit-KRas^G12C cells. The format is cell-based. Conditions: 24 hours; for Dmax: maximum degradation; for DC50: read-out: KRas^G12C-HiBiT (MiaPaCa; 0.5% DMSO) IC50. The method, boiled down: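 DC50 and Dmax come from 4-parameter fits of DMSO-normalized HiBit luminescence after 24 hours' exposure at 37° C to 10 μM–20 nM compound in 0.1% or 0.5% DMSO. Cells: MiaPaCa-2 carrying one endogenously HiBit-tagged KRAS^G12C allele; concentrations causing ≥50% […] viability loss (alamar blue) excluded.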
In general terms: HiBiT is a short tag that completes a luciferase, so light tracks the accessible tagged protein.

In assay [2] the target is T1, HiBit-KRAS^G12C. The experiment in a line: HiBit degradation assay in SW1573 HiBit-KRas^G12C cells. Type of assay: cell-based. Further details: expressed in transfected cells; host or cells: SW1573 (clone E6), modified pcDNA3.1 vector, TK promoter. The conditions noted are these: 24 hours. Summed up:
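HiBit-KRAS G12C degradation was measured after a 24 h compound exposure (titrated 10 μM–20 nM) in engineered SW1573 cells. Lytic HiBit luminescence, expressed relative to DMSO controls, yielded DC50 and Dmax from 4-parameter fits. Concentrations causing ≥50% loss in alamar blue viability were omitted as cytotoxic.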

Setting [3] is: MIA PaCa-2, MiaPaCa-2 HiBit-KRas^G12C cells, 0.5% DMSO, read-out: KRas^G12C-HiBiT (MiaPaCa; 0.5% DMSO) DMax.
Setting [4] is: MiaPaCa-2 HiBit-KRas^G12C cells, 0.5% DMSO.
[5] abbreviates: SW1573, SW1573 HiBit-KRas^G12C, 0.5% DMSO, read-out: KRas^G12C-HiBiT (SW1573; 0.5% DMSO) Dmax**.
The mark [6] stands for this setting: read-out: KRas^G12C-HiBiT (SW1573; 0.5% DMSO) IC50***, SW1573 HiBit-KRas^G12C, 0.5% DMSO.
Where [7] appears, read: SW1573 HiBit-KRas^G12C, 0.1% DMSO, read-out: KRas^G12C-HIBit (SW1573; 0.1% DMSO) DC50*.
Where [8] appears, read: MIA PaCa-2, read-out: KRas^G12C-HiBiT (MiaPaCa; 0.5% DMSO) DMax, MiaPaCa-2 HiBit-KRas^G12C cells, 0.5% DMSO.
The mark [9] stands for this setting: SW1573, read-out: KRas^G12C-HiBiT (SW1573; 0.5% DMSO) Dmax**, SW1573 HiBit-KRas^G12C, 0.5% DMSO.

T1 sequence (P01116 1-186 isoform P01116-2 G12C limits assumed): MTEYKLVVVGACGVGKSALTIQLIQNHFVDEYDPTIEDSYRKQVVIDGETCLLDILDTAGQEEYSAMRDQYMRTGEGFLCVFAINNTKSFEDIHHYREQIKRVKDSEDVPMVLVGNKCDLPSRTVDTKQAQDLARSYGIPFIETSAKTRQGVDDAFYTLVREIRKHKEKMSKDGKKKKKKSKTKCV

Take `C=C(F)C(=O)N1CCN(c2nc(OCCN3CCC(OCCOCC(=O)N[C@H](C(=O)N4C[C@H](O)C[C@H]4C(=O)N[C@@H](C)c4ccc(-c5scnc5C)cc4)C(C)(C)C)CC3)nc3c(F)c(-c4cc(O)cc5ccccc45)c(Cl)cc23)C[C@@H]1CC#N` [Compound 170, (2S,4R)-1-[(2S)-2-{2-[2-({1-[2-({6-chloro-4-[(3S)-3-(cyanomethyl)-4-(2-fluoroprop-2-enoyl)piperazin-1-yl]-8-fluoro-7-(3-hydroxynaphthalen-1-yl)quinazolin-2-yl}oxy)ethyl]piperidin-4-yl}oxy)ethoxy]acetamido}-3,3-dimethylbutanoyl]-4-hydroxy-N-[(1S)-1-[4-(4-methyl-1,3-thiazol-5-yl)phenyl]ethyl]pyrrolidine-2-carboxamide]: the Dmax was 35 to 70% at HiBit-KRAS^G12C [1] (setting [3]) and over 70% at HiBit-KRAS^G12C [2] (setting [5]). Besides, the DC50 at HiBit-KRAS^G12C [1] (setting [4]) and on HiBit-KRAS^G12C [2] (setting [6]) was 100 to 1000 nM throughout.
`C=C(F)C(=O)N1CCN(c2nc(O[C@H](C)CN3CCC(COCC(=O)N[C@H](C(=O)N4C[C@H](O)C[C@H]4C(=O)N[C@@H](C)c4ccc(-c5scnc5C)cc4)C(C)(C)C)CC3)nc3c2CCN(c2cc(O)cc4ccccc24)C3)C[C@@H]1CC#N` [Compound 24, (2S,4R)-1-[(2S)-2-[2-({1-[(2R)-2-({4-[(3S)-3-(cyanomethyl)-4-(2-fluoroprop-2-enoyl)piperazin-1-yl]-7-(3-hydroxynaphthalen-1-yl)-5H,6H,7H,8H-pyrido[3,4-d]pyrimidin-2-yl}oxy)propyl]piperidin-4-yl}methoxy)acetamido]-3,3-dimethylbutanoyl]-4-hydroxy-N-[(1S)-1-[4-(4-methyl-1,3-thiazol-5-yl)phenyl]ethyl]pyrrolidine-2-carboxamide]: the Dmax at HiBit-KRAS^G12C [1] (MIA PaCa-2, MiaPaCa-2 HiBit-KRas^G12C cells, 0.1% DMSO, read-out: KRas^G12C-HiBiT (MiaPaCa; 0.1% DMSO) DMax) is under 35%; on HiBit-KRAS^G12C [2] (SW1573, SW1573 HiBit-KRas^G12C, 0.1% DMSO, read-out: KRas^G12C-HiBit (SW1573; 0.1% DMSO) Dmax**), under 35%. Further, the DC50 on HiBit-KRAS^G12C [2] (setting [7]) is over 1000 nM.
For `C=C(F)C(=O)N1CCN(c2nc(OCCN3CCC(COCC(=O)N[C@H](C(=O)N4C[C@H](O)C[C@H]4C(=O)N[C@@H](C)c4ccc(-c5scnc5C)cc4)C(C)(C)C)CC3)nc3c(F)c(-c4cc(O)cc5ccccc45)c(Cl)cc23)C[C@@H]1CC#N` (atropisomer, axis not shown) [Compound 151, (2S,4R)-1-[(2S)-2-[2-({1-[2-({6-chloro-4-[(3S)-3-(cyanomethyl)-4-(2-fluoroprop-2-enoyl)piperazin-1-yl]-8-fluoro-7-(3-hydroxynaphthalen-1-yl)quinazolin-2-yl}oxy)ethyl]piperidin-4-yl}methoxy)acetamido]-3,3-dimethylbutanoyl]-4-hydroxy-N-[(1S)-1-[4-(4-methyl-1,3-thiazol-5-yl)phenyl]ethyl]pyrrolidine-2-carboxamide], the Dmax on HiBit-KRAS^G12C [1] (setting [3]) and on HiBit-KRAS^G12C [2] (setting [5]) was over 70% in each case. For the same compound, at HiBit-KRAS^G12C [2] (setting [6]), the DC50 is under 100 nM.
For the compound `C=CC(=O)N1CCN(c2nc(OCCN3CCC(CN(C)CC(=O)N[C@H](C(=O)N4C[C@H](O)C[C@H]4C(=O)N[C@@H](C)c4ccc(-c5scnc5C)cc4)C(C)(C)C)CC3)nc3c(F)c(-c4cc(O)cc5ccccc45)c(Cl)cc23)C[C@@H]1CC#N` [Compound 148, (2S,4R)-1-[(2S)-2-{2-[({1-[2-({6-chloro-4-[(3S)-3-(cyanomethyl)-4-(prop-2-enoyl)piperazin-1-yl]-8-fluoro-7-(3-hydroxynaphthalen-1-yl)quinazolin-2-yl}oxy)ethyl]piperidin-4-yl}methyl)(methyl)amino]acetamido}-3,3-dimethylbutanoyl]-4-hydroxy-N-[(1S)-1-[4-(4-methyl-1,3-thiazol-5-yl)phenyl]ethyl]pyrrolidine-2-carboxamide], the Dmax at HiBit-KRAS^G12C [1] (setting [8]) and at HiBit-KRAS^G12C [2] (setting [9]) was 35 to 70% throughout. For the same compound, the DC50 at HiBit-KRAS^G12C [1] (setting [4]) and on HiBit-KRAS^G12C [2] (setting [6]) was 100 to 1000 nM throughout.
Regarding `C=CC(=O)N1CCN(c2nc(O[C@@H]3CCC[C@H]3N3CCC(COCC(=O)N[C@H](C(=O)N4C[C@H](O)C[C@H]4C(=O)N[C@@H](C)c4ccc(-c5scnc5C)cc4)C(C)(C)C)CC3)nc3c(F)c(-c4cc(O)cc5ccccc45)c(Cl)cc23)CC1` [Compound 13, (2S,4R)-1-[(2S)-2-[2-({1-[(1R,2R)-2-{[6-chloro-8-fluoro-7-(3-hydroxynaphthalen-1-yl)-4-[4-(prop-2-enoyl)piperazin-1-yl]quinazolin-2-yl]oxy}cyclopentyl]piperidin-4-yl}methoxy)acetamido]-3,3-dimethylbutanoyl]-4-hydroxy-N-[(1S)-1-[4-(4-methyl-1,3-thiazol-5-yl)phenyl]ethyl]pyrrolidine-2-carboxamide], the Dmax was 35 to 70% at HiBit-KRAS^G12C [1] (MIA PaCa-2, read-out: KRas^G12C-HiBiT (MiaPaCa; 0.1% DMSO) DMax, MiaPaCa-2 HiBit-KRas^G12C cells, 0.1% DMSO); 35 to 70% at HiBit-KRAS^G12C [1] (setting [8]); 35 to 70% at HiBit-KRAS^G12C [2] (setting [9]); 35 to 70% at HiBit-KRAS^G12C [2] (SW1573, read-out: KRas^G12C-HiBit (SW1573; 0.1% DMSO) Dmax**, SW1573 HiBit-KRas^G12C, 0.1% DMSO). Further, the DC50 on HiBit-KRAS^G12C [2] (setting [7]) was in the range of 100 to 1000 nM.
Regarding `C=CC(=O)N1CCN(c2nc(OCCN3CCC(COCC(=O)N[C@H](C(=O)N4C[C@@H](O)C[C@H]4C(=O)N[C@@H](C)c4ccc(-c5scnc5C)cc4)C(C)(C)C)CC3)nc3c(F)c(-c4cc(O)cc5ccccc45)c(Cl)cc23)C[C@@H]1CC#N` (atropisomer, axis not shown) [Compound 162, (2S,4S)-1-[(2S)-2-[2-({1-[2-({6-chloro-4-[(3S)-3-(cyanomethyl)-4-(prop-2-enoyl)piperazin-1-yl]-8-fluoro-7-(3-hydroxynaphthalen-1-yl)quinazolin-2-yl}oxy)ethyl]piperidin-4-yl}methoxy)acetamido]-3,3-dimethylbutanoyl]-4-hydroxy-N-[(1S)-1-[4-(4-methyl-1,3-thiazol-5-yl)phenyl]ethyl]pyrrolidine-2-carboxamide], the Dmax at HiBit-KRAS^G12C [1] (setting [3]) was 35 to 70%; at HiBit-KRAS^G12C [2] (setting [5]), under 35%.
Turning to `C=CC(=O)N1CCN(c2nc(OCCN3CCC(COc4cc([C@@H](C(=O)N5C[C@H](O)C[C@H]5C(=O)N[C@@H](C)c5ccc(C#N)cc5)C(C)C)on4)CC3)nc3c(F)c(-c4cc(O)cc5ccccc45)c(Cl)cc23)C[C@@H]1CC#N` [Compound 161, (2S,4R)-1-[(2S)-2-[3-({1-[2-({6-chloro-4-[(3S)-3-(cyanomethyl)-4-(prop-2-enoyl)piperazin-1-yl]-8-fluoro-7-(3-hydroxynaphthalen-1-yl)quinazolin-2-yl}oxy)ethyl]piperidin-4-yl}methoxy)-1,2-oxazol-5-yl]-3-methylbutanoyl]-N-[(1S)-1-(4-cyanophenyl)ethyl]-4-hydroxypyrrolidine-2-carboxamide], the Dmax at HiBit-KRAS^G12C [1] (setting [3]) and at HiBit-KRAS^G12C [2] (setting [5]) was 35 to 70% throughout. Moreover, the DC50 was 100 to 1000 nM at HiBit-KRAS^G12C [1] (setting [4]) and under 100 nM on HiBit-KRAS^G12C [2] (setting [6]).
As to `C=C(F)C(=O)N1CCN(c2nc(OCCN3CCC4(CC3)CN(c3cc([C@@H](C(=O)N5C[C@H](O)C[C@H]5C(=O)N[C@@H](C)c5ccc(-c6ccnn6C)cc5)C(C)C)on3)C4)nc3c(F)c(-c4cc(O)cc5ccccc45)c(Cl)cc23)C[C@@H]1CC#N` (atropisomer, axis not shown) [Compound 103, (2S,4R)-1-[(2S)-2-(3-{7-[2-({6-chloro-4-[(3S)-3-(cyanomethyl)-4-(2-fluoroprop-2-enoyl)piperazin-1-yl]-8-fluoro-7-(3-hydroxynaphthalen-1-yl)quinazolin-2-yl}oxy)ethyl]-2,7-diazaspiro[3.5]nonan-2-yl}-1,2-oxazol-5-yl)-3-methylbutanoyl]-4-hydroxy-N-[(1S)-1-[4-(1-methyl-1H-pyrazol-5-yl)phenyl]ethyl]pyrrolidine-2-carboxamide], the DC50 on HiBit-KRAS^G12C [1] (setting [4]) is over 1000 nM; at HiBit-KRAS^G12C [2] (setting [6]), 100 to 1000 nM.
